Consider one compound from patent publication US20230030886A1, “CHEMOTHERAPEUTIC DRUG IMPLANT” (EXTRUDED PHARMACEUTICALS LTD, priority 2019, published 2023).

The experiment relates to primary GBM cells taken from eight patients with recurrent GBM. Nature of the experiment: GBM cell cytotoxicity of IRN, TMZ and IRN+PVT, increasing concentrations, 5 days (MTT). It counts as cell-based, human. As for the experimental part: TMZ, IRN and IRN+PVT were added at increasing concentrations up to 5 log nm to cultured primary GBM cells taken from eight patients with recurrent GBM. After 5 days of exposure an MTT assay was performed to assess % cell viability.

pIC50: −log10 of the molar value.

For `CCc1c2c(nc3ccc(OC(=O)N4CCC(N5CCCCC5)CC4)cc13)-c1cc3c(c(=O)n1C2)COC(=O)[C@]3(O)CC` [IRN, irinotecan], the pIC50 (Homo sapiens, 120 h, determined from FIG. 23, 5 days exposure, eight patient lines) is 5.50. For the same compound, the “response of the eight patient cell lines to treatment” value (up to 5 log nm, 5 days of exposure) was “Six of the eight patient cell lines responded”.
